# In PubChem BioAssay (NCI):
#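 A five-concentration, 48-hour dose response in 96-well plates underlies each endpoint, interpolated linearly between surrounding concentrations. GI50 marks 50% less growth. TGI marks complete inhibition of growth.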
# How the values were obtained:
# Assay in all cases: growth of human tumour cells (NCI), 48 h
# UACC-257 melanoma = system: UACC-257 melanoma
# MDA-MB-231 breast = system: MDA-MB-231 breast
# MCF7 breast = system: MCF7 breast
# HOP-92 NSCLC = system: HOP-92 NSCLC
# CCRF-CEM leukemia = system: CCRF-CEM leukemia
# HCT-116 colon = system: HCT-116 colon
# COLO 205 colon = system: COLO 205 colon
# HOP-62 NSCLC = system: HOP-62 NSCLC
# OVCAR-8 ovarian = system: OVCAR-8 ovarian
# SR leukemia = system: SR leukemia
# MOLT-4 leukemia = system: MOLT-4 leukemia
# SNB-19 CNS = system: SNB-19 CNS
# CAKI-1 renal = system: CAKI-1 renal
# K-562 leukemia = system: K-562 leukemia
# A549 NSCLC = system: A549 NSCLC
# SF-268 CNS = system: SF-268 CNS
# NCI-H226 lung = system: NCI-H226 lung
# SK-OV-3 ovarian = system: SK-OV-3 ovarian
# EKVX NSCLC = system: EKVX NSCLC
# MDA-MB-435 = system: MDA-MB-435
# RXF 393 renal = system: RXF 393 renal
# T-47D breast = system: T-47D breast
# NCI/ADR-RES ovarian = system: NCI/ADR-RES ovarian
# RPMI-8226 leukemia = system: RPMI-8226 leukemia
# HL-60(TB) leukemia = system: HL-60(TB) leukemia
# KM12 colon = system: KM12 colon
# HCC-2998 colon = system: HCC-2998 colon
# HCT-15 colon = system: HCT-15 colon
# OVCAR-5 ovarian = system: OVCAR-5 ovarian
# SK-MEL-5 melanoma = system: SK-MEL-5 melanoma
# SF-295 CNS = system: SF-295 CNS
# PC-3 prostate = system: PC-3 prostate
# NCI-H460 lung = system: NCI-H460 lung
# NCI-H23 lung = system: NCI-H23 lung
# M14 melanoma = system: M14 melanoma
# U251 CNS = system: U251 CNS
# OVCAR-3 ovarian = system: OVCAR-3 ovarian
# ACHN renal = system: ACHN renal
# OVCAR-4 ovarian = system: OVCAR-4 ovarian
# A498 renal = system: A498 renal
# SK-MEL-28 melanoma = system: SK-MEL-28 melanoma
# UO-31 renal = system: UO-31 renal
# UACC-62 melanoma = system: UACC-62 melanoma
# DU-145 prostate = system: DU-145 prostate
# LOX IMVI melanoma = system: LOX IMVI melanoma
# MALME-3M melanoma = system: MALME-3M melanoma
# SW-620 colon = system: SW-620 colon
# SN12C renal = system: SN12C renal
# HT29 colon = system: HT29 colon
# TK-10 renal = system: TK-10 renal
# HS 578T breast = system: HS 578T breast
# SNB-75 CNS = system: SNB-75 CNS
# SF-539 CNS = system: SF-539 CNS
# BT-549 breast = system: BT-549 breast
# 786-0 renal = system: 786-0 renal
# SK-MEL-2 melanoma = system: SK-MEL-2 melanoma
# NCI-H522 lung = system: NCI-H522 lung
compound,measurement,setting,value
C[N+]1=C(/C=C/c2ccc(O)c3ncccc23)C(C)(C)c2ccccc21,GI50,UACC-257 melanoma,3.81 µM
same,TGI,UACC-257 melanoma,13.5 µM
same,GI50,MDA-MB-231 breast,2750 nM
same,TGI,MDA-MB-231 breast,11 µM
same,GI50,MCF7 breast,2710 nM
same,TGI,MCF7 breast,10.7 µM
same,GI50,HOP-92 NSCLC,2220 nM
same,TGI,HOP-92 NSCLC,7.67 µM
same,GI50,CCRF-CEM leukemia,3.1 µM
same,TGI,CCRF-CEM leukemia,26 µM
same,GI50,HCT-116 colon,2860 nM
same,TGI,HCT-116 colon,10.5 µM
same,GI50,COLO 205 colon,2300 nM
same,TGI,COLO 205 colon,6.11 µM
same,GI50,HOP-62 NSCLC,3.44 µM
same,TGI,HOP-62 NSCLC,14.5 µM
same,GI50,OVCAR-8 ovarian,3.55 µM
same,TGI,OVCAR-8 ovarian,> 100 µM
same,GI50,SR leukemia,2130 nM
same,TGI,SR leukemia,15 µM
same,GI50,MOLT-4 leukemia,3.14 µM
same,TGI,MOLT-4 leukemia,> 100 µM
same,GI50,SNB-19 CNS,3.74 µM
same,TGI,SNB-19 CNS,14.4 µM
same,GI50,CAKI-1 renal,1110 nM
same,TGI,CAKI-1 renal,3.83 µM
same,GI50,K-562 leukemia,2320 nM
same,TGI,K-562 leukemia,> 100 µM
same,GI50,A549 NSCLC,2960 nM
same,TGI,A549 NSCLC,13.4 µM
same,GI50,SF-268 CNS,2730 nM
same,TGI,SF-268 CNS,14.1 µM
same,GI50,NCI-H226 lung,3.26 µM
same,TGI,NCI-H226 lung,12.9 µM
same,GI50,SK-OV-3 ovarian,2760 nM
same,TGI,SK-OV-3 ovarian,12 µM
same,GI50,EKVX NSCLC,2010 nM
same,TGI,EKVX NSCLC,7.16 µM
same,GI50,MDA-MB-435,2350 nM
same,TGI,MDA-MB-435,7.01 µM
same,GI50,RXF 393 renal,4 µM
same,TGI,RXF 393 renal,16 µM
same,GI50,T-47D breast,2940 nM
same,TGI,T-47D breast,14.2 µM
same,GI50,NCI/ADR-RES ovarian,634 nM
same,TGI,NCI/ADR-RES ovarian,6.08 µM
same,GI50,RPMI-8226 leukemia,2480 nM
same,TGI,RPMI-8226 leukemia,10.3 µM
same,GI50,HL-60(TB) leukemia,2730 nM
same,TGI,HL-60(TB) leukemia,8.04 µM
same,GI50,KM12 colon,2970 nM
same,TGI,KM12 colon,10.5 µM
same,GI50,HCC-2998 colon,2440 nM
same,TGI,HCC-2998 colon,6.73 µM
same,GI50,HCT-15 colon,893 nM
same,TGI,HCT-15 colon,15.1 µM
same,GI50,OVCAR-5 ovarian,2420 nM
same,TGI,OVCAR-5 ovarian,12.6 µM
same,GI50,SK-MEL-5 melanoma,2260 nM
same,TGI,SK-MEL-5 melanoma,5.71 µM
same,GI50,SF-295 CNS,2210 nM
same,TGI,SF-295 CNS,5.24 µM
same,GI50,PC-3 prostate,2790 nM
same,TGI,PC-3 prostate,22 µM
same,GI50,NCI-H460 lung,1770 nM
same,TGI,NCI-H460 lung,3.8 µM
same,GI50,NCI-H23 lung,2620 nM
same,TGI,NCI-H23 lung,8.54 µM
same,GI50,M14 melanoma,2530 nM
same,TGI,M14 melanoma,7.7 µM
same,GI50,U251 CNS,2400 nM
same,TGI,U251 CNS,17.1 µM
same,GI50,OVCAR-3 ovarian,2100 nM
same,TGI,OVCAR-3 ovarian,5.46 µM
same,GI50,ACHN renal,1980 nM
same,TGI,ACHN renal,7.03 µM
same,GI50,OVCAR-4 ovarian,3.12 µM
same,TGI,OVCAR-4 ovarian,17.2 µM
same,GI50,A498 renal,1970 nM
same,TGI,A498 renal,11 µM
same,GI50,SK-MEL-28 melanoma,4.35 µM
same,TGI,SK-MEL-28 melanoma,16.4 µM
same,GI50,UO-31 renal,580 nM
same,TGI,UO-31 renal,5.73 µM
same,GI50,UACC-62 melanoma,2470 nM
same,TGI,UACC-62 melanoma,8.54 µM
same,GI50,DU-145 prostate,2980 nM
same,TGI,DU-145 prostate,12.1 µM
same,GI50,LOX IMVI melanoma,2320 nM
same,TGI,LOX IMVI melanoma,5.74 µM
same,GI50,MALME-3M melanoma,2010 nM
same,TGI,MALME-3M melanoma,5.43 µM
same,GI50,SW-620 colon,2850 nM
same,TGI,SW-620 colon,11.1 µM
same,GI50,SN12C renal,2820 nM
same,TGI,SN12C renal,10.4 µM
same,GI50,HT29 colon,3.19 µM
same,TGI,HT29 colon,12.6 µM
same,GI50,TK-10 renal,3.43 µM
same,TGI,TK-10 renal,14.9 µM
same,GI50,HS 578T breast,2140 nM
same,TGI,HS 578T breast,8.14 µM
same,GI50,SNB-75 CNS,2260 nM
same,TGI,SNB-75 CNS,7.78 µM
same,GI50,SF-539 CNS,2550 nM
same,TGI,SF-539 CNS,10.3 µM
same,GI50,BT-549 breast,2640 nM
same,TGI,BT-549 breast,10.3 µM
same,GI50,786-0 renal,3.57 µM
same,TGI,786-0 renal,13 µM
same,GI50,SK-MEL-2 melanoma,3.88 µM
same,TGI,SK-MEL-2 melanoma,24 µM
same,GI50,NCI-H522 lung,2830 nM
same,TGI,NCI-H522 lung,11.6 µM
